{
  "source": "patent US20250212873A1",
  "about": "“VOLATILE HDAC INHIBITORS FOR THERAPEUTIC AND PLANT APPLICATIONS” (The Regents of the University of California, priority 2022, published 2025)",
  "key": {"[1]": {"test_system": "Arabidopsis thaliana seedlings", "assay": "Odor Exposure assay, Arabidopsis thaliana seedlings (root and leaf development)", "assay_type": "in vivo", "description": "The Odor Exposure assay consists of controlled exposure of volatile odor compounds to model plant Arabidopsis within enclosed aquariums and similar growth conditions (23° C. with a 12-hour light/dark cycle). For Arabidopsis, seedlings were aligned on agar plates for growth after a 4-day cold treatment process. The agar plates with seedlings were then placed in enclosed aquariums with moist paper towels soaked in 10 ml of DI water for humidity. The plates were placed along the wall, approximately 12 cm from odor dispensers which resided in the center of the glass tank.\nThe test compound odor dispensers, consisting of (60×15 mm) polystyrene Petri dishes containing 2 ml of 1% v/v in PO, are replaced at the 3.5, 5, and 6-day time mark during the 7-day experiment. Root growth is marked during each time mark and the plates were imaged. The plants are to be collected after the 7-day exposure, photographed, and the leaves/roots carefully dissected separated, flash frozen in liquid nitrogen, and preserved for future sequencing. Root growth is measured using ImageJ.\nIn order to study the physiological effects of long-term exposure to microbial volatiles the model system Arabidopsis was exposed for […] to diacetyl, a volatile chemical emitted by fermentation by yeast or microbial degradation in the soil associated with roots (R. J. Morcillo et al., EMBO J 39, e102602 (2020); M. A. Farag, et al., Phytochemistry 67, 2262-2268 (2006); and C. M. Ryu et al., P Natl Acad Sci USA 100, 4927-4932 (2003). The Odor Exposure assay consisted of controlled exposure of volatile HDAC inhibiting compounds to model plant Arabidopsis within enclosed aquariums and similar growth conditions. The test compound odor cartridges, consisting of 60×15 mm polystyrene Petri dishes containing 2 ml of indicated concentration in Paraffin Oil, were replaced at the 3.5, 5, and 6-day time mark during the 7-day experiment (FIG. 1A, left). In separate experiments the weight loss from the odor cartridges over time was measured and used it to calculate the concentration of diacetyl in the glass chambers in parts per million (FIG. 1A, right).\nIn order to directly evaluate whether exposure to vapors of the four HDAC-inhibitory VOCs affect root development, we performed a set of experiments using A. thaliana seedlings as before. Solutions for each of the four chemicals on a small petri dish were placed away from the seedlings growing in agar plate and enclosed in glass tank. The Root tips were marked at specified days post treatment start and photographs analyzed. The plants were collected after the 7-day exposure, photographed, and the roots were separated. Detailed measurements were made from the photos using ImageJ and the root length and numbers of lateral roots quantified at day 3.5 and day 7 after start if the treatment (FIG. 1B).\nThe Odor Exposure assay consists of controlled exposure of volatile odor compounds to model plant Arabidopsis within enclosed aquariums and similar growth conditions (23° C. with a 12-hour light/dark cycle). The test compound odor cartridges, consisting of (60×15 mm) polystyrene Petri dishes containing 2 ml of 1% v/v in paraffin oil (PO), were replaced at the 3.5, 5, and 6-day time mark during the 7-day experiment. Root growth was marked during each time point and the plates were imaged. Numbers of true leaves were also counted. The plants are to be collected after the 7-day exposure, photographed, and the leaves/roots carefully dissected separated, flash frozen in liquid nitrogen, and preserved for future sequencing. Root growth is measured using ImageJ."}, "[2]": {"test_system": "Arabidopsis thaliana seedlings", "assay": "Odor Exposure assay, Arabidopsis thaliana seedlings (root and leaf development)", "assay_type": "in vivo", "settings": "10-fold lower dose (0.1% solution headspace)"}, "SH-SY5Y Cancer cell line": {"test_system": "SH-SY5Y Cancer cell line", "assay": "Cancer cell viability assay, SH-SY5Y", "assay_type": "cell-based", "description": "(§1) Cells were maintained in a 37° C. incubator with 5% CO2 throughout the experiment. Compound stocks were dissolved in 10% DMSO, but final concentrations were made fresh in complete media as needed. 10% DMSO solvent was used as control in complete media. Cells were seeded onto 12-well plates and allowed 12-24 hours until treatment began to allow cells to adhere to wells. This was followed by minimum 5-day treatment of compounds, changing the media with treatment every 48 hours. Cell lines A549, PC3, and SK-MEL-5 were seeded at 8000 cells/well which would provide 80-100% confluency after 6-day growth. SH-SY5Y was seeded at 8000 cells/well then 16,000 cells/well due to slower growth and given at least 10 days for sufficient growth. After allotted growth times, cell counts were performed via Countess™ automated cell counter. All assays were completed with a minimum of triplicate replicates for all conditions and analyzed through GraphPad Prism One-way ANOVA for significance."}, "[3]": {"test_system": "SK-MEL-5 Cancer cell line", "assay": "Cancer cell viability assay, SK-MEL-5", "assay_type": "cell-based", "settings": "triplicates", "description": "as §1"}, "[4]": {"test_system": "A. thaliana plants (Col-0)", "assay": "Flowering assay", "assay_type": "in vivo, Arabidopsis thaliana", "settings": "vapors from 0.1% solution", "source_text": "Dramatic effects of VOCs have been seen in the seedling stage. The effects on with flowering timing were observed, since the process involves numerous changes in gene expression and therefore potentially susceptible to HDAC inhibitory volatiles. Mutants in HDACs like HDA5 show delayed flowering due to upregulation of flowering repressor genes like FLC and MAF1 (M. Luo et al., Plant J 82, 925-936 (2015)). Conversely, mutants in HDA9lead to early flowering due to increased expression of FLOWERING LOCUS T (FT) and AGAMOUS-LIKE 19 (AGL19) (M. J. Kang, et al., New Phytol 206, 281-294 (2015)). We placed 3 weeks old A. thaliana plants in the glass chambers and exposed them to the vapors of two of the VOCs, diacetyl and α-angelica lactone volatilizing from 0.1% solutions in the glass chamber.\nTwenty-seven day old A. thaliana plants (Col-0), that had been transplanted at day 7 to soil, were placed in 10-gallon glass aquarium as chamber along with a petridish containing 2 ml of chemical dissolved in PO or PO alone were placed at the other side of the container. Plants were exposed to odors until all plants began to flower, with odor cartridges being replaced daily. Signs of flower buds opening were counted as plant flowering. One-way analysis of Variance (ANOVA) between groups was performed for plant exposure quantitative data using Graph Pad Prism 9."}, "[5]": {"settings": "7-day exposure, headspace of 1% v/v in Paraffin oil"}},
  "note": "“Also recorded” adds a separate entry of the source.",
  "data": [
    {"smiles": "CC(=O)C(C)=O", "note": "[2,3-butanedione]", "values": [
      {"measurement": "root growth", "setting": "[1]; 3.5-day exposure, headspace of 1% v/v in Paraffin oil", "value": "significant root growth inhibition"},
      {"measurement": "lateral root growth (number of lateral roots)", "setting": "[1]; [5]", "value": "increase; also recorded: notable lateral root promotion; also recorded: significant phenotypic changes"},
      {"measurement": "leaf development (number of large / true leaves)", "setting": "[1]; [5]", "value": "changes in the number of true leaf development/growth; also recorded: significant phenotypic changes"},
      {"measurement": "lateral root growth (number of lateral roots)", "setting": "[1]; 7-day exposure, headspace of 1% v/v in Paraffin oil, listed as 2,3-butandione", "value": "promoted lateral root growth"},
      {"measurement": "leaf development (number of large / true leaves)", "setting": "[1]; 7-day exposure, headspace of 1% v/v in Paraffin oil, listed as diacetyl", "value": "significant decreases"},
      {"measurement": "root growth (primary root length)", "setting": "[1]; 7-day exposure, headspace of solution in Paraffin oil", "value": "lack of growth"},
      {"measurement": "lateral roots, number relative to control", "setting": "[1]; highest dose, 7-day exposure", "value": "~3", "unit": "times"},
      {"measurement": "change from solvent treated seedlings in every growth category", "setting": "[2]", "value": "significant change"},
      {"measurement": "inhibition of neuroblastoma (SH-SY5Y) cell line, summary", "setting": "SH-SY5Y Cancer cell line", "value": "has potential in inhibiting"},
      {"measurement": "changes in proliferation, SH-SY5Y", "setting": "SH-SY5Y Cancer cell line; 33 micro-molar", "value": "significant inhibition of cell growth; also recorded: Significant changes in proliferations"},
      {"measurement": "changes in proliferation, SH-SY5Y", "setting": "SH-SY5Y Cancer cell line; 100 micro-molar", "value": "significant inhibition of cell growth; also recorded: Significant changes in proliferations"},
      {"measurement": "changes in proliferation, SK-MEL-5", "setting": "[3]; 33 uM", "value": "No significant changes in proliferations"},
      {"measurement": "changes in proliferation, SK-MEL-5", "setting": "[3]; 100 uM", "value": "No significant changes in proliferations"},
      {"measurement": "delay in flowering", "setting": "[4]", "value": 11, "unit": "days"}
    ]}
  ]
}
